Experimental data: patent US9174994B2, “Enhanced treatment regimens using mTor inhibitors” (INTELLIKINE LLC, priority 2011, dated 2015)

Experiment: Phase I clinical trial: treatment-emergent adverse events (patients, n (%)), dose limiting toxicity, MTD
Assay type: in vivo
[1] = Table 8: Total QDx5d QW (N = 6)
[2] = Table 8: Total QW Dosing (N = 15)
[3] = all 3 intermittent dosing regimens, n=35

Method: Safety, maximum tolerated dose (MTD), pharmacokinetics (PK) and preliminary antitumor activity were evaluated.
Pharmacodynamic (PD) endpoints were evaluated in surrogate (peripheral blood cells [PBCs], skin) and tumor tissues for the phosphorylation of TORC1-dependent markers (4EBP1/S6), and TORC2-dependent markers (AKT/PRAS40).

Compound: CC(C)n1nc(-c2ccc3oc(N)nc3c2)c2c(N)ncnc21 [compound A]
- Weight decreased (Table 8: Total QDx3d QW (N = 14)): 0 (0%)
- Catheter site inflammation [1]: 0 (0%)
- Catheter site pain [1]: 0 (0%)
- Coagulopathy [1]: 0 (0%)
- Confusional state [1]: 0 (0%)
- Cough [1]: 0 (0%)
- DIARRHEA [1]: 0 (0%)
- Dizziness [1]: 0 (0%)
- Dyspnoea exertional [1]: 0 (0%)
- Eye infection [1]: 0 (0%)
- Fatigue [1]: 0 (0%)
- Gastritis [1]: 0 (0%)
- Gravitational oedema [1]: 0 (0%)
- Headache [1]: 0 (0%)
- Hyperbilirubinaemia [1]: 0 (0%)
- Hypertransaminasaemia [1]: 0 (0%)
- Hypertriglyceridaemia [1]: 0 (0%)
- Hypocalcaemia [1]: 0 (0%)
- Hypomagnesaemia [1]: 0 (0%)
- Hypotension [1]: 0 (0%)
- Insomnia [1]: 0 (0%)
- Low fever [1]: 0 (0%)
- Malaise [1]: 0 (0%)
- Nausea [1]: 1 (17%)
- Oral discomfort [1]: 0 (0%)
- Orthostatic hypotension [1]: 0 (0%)
- Palmar-plantar erythrodysaesthesia syndrome [1]: 0 (0%)
- Panniculitis [1]: 0 (0%)
- Platelet count decreased [1]: 0 (0%)
- Polyuria [1]: 0 (0%)
- Pyrexia [1]: 0 (0%)
- Rash [1]: 0 (0%)
- Rash macular [1]: 0 (0%)
- Skin discolouration [1]: 0 (0%)
- Skin exfoliation [1]: 0 (0%)
- Urinary tract infection [1]: 0 (0%)
- Urine tract infection [1]: 1 (17%)
- Vomiting [1]: 1 (17%)
- WEAKNESS [1]: 0 (0%)
- Weight decreased [1]: 0 (0%)
- Catheter site inflammation [2]: 0 (0%)
- Catheter site pain [2]: 0 (0%)
- Coagulopathy [2]: 0 (0%)
- Confusional state [2]: 0 (0%)
- Cough [2]: 0 (0%)
- DIARRHEA [2]: 1 (7%)
- Dizziness [2]: 0 (0%)
- Dyspnoea exertional [2]: 0 (0%)
- Eye infection [2]: 0 (0%)
- Fatigue [2]: 0 (0%)
- Gastritis [2]: 0 (0%)
- Gravitational oedema [2]: 0 (0%)
- Headache [2]: 0 (0%)
- Hyperbilirubinaemia [2]: 0 (0%)
- Hypertransaminasaemia [2]: 0 (0%)
- Hypertriglyceridaemia [2]: 0 (0%)
- Hypocalcaemia [2]: 0 (0%)
- Hypomagnesaemia [2]: 0 (0%)
- Hypotension [2]: 0 (0%)
- Insomnia [2]: 0 (0%)
- Low fever [2]: 0 (0%)
- Malaise [2]: 1 (7%)
- Nausea [2]: 0 (0%)
- Oral discomfort [2]: 1 (7%)
- Orthostatic hypotension [2]: 0 (0%)
- Palmar-plantar erythrodysaesthesia syndrome [2]: 0 (0%)
- Panniculitis [2]: 0 (0%)
- Platelet count decreased [2]: 0 (0%)
- Polyuria [2]: 0 (0%)
- Pyrexia [2]: 0 (0%)
- Rash [2]: 1 (7%)
- Rash macular [2]: 0 (0%)
- Skin discolouration [2]: 0 (0%)
- Skin exfoliation [2]: 0 (0%)
- Urinary tract infection [2]: 0 (0%)
- Urine tract infection [2]: 0 (0%)
- Vomiting [2]: 0 (0%)
- WEAKNESS [2]: 1 (7%)
- Weight decreased [2]: 0 (0%)
- Grade 3 or greater TEAE: Abdominal pain upper (Total (N = 60)): 1 (2%)
- Grade 3 or greater TEAE: Anaemia (Total (N = 60)): 1 (2%)
- Grade 3 or greater TEAE: Aspartate aminotransferase increased (Total (N = 60)): 1 (2%)
- Grade 3 or greater TEAE: Asthenia (Total (N = 60)): 1 (2%)
- Grade 3 or greater TEAE: Catheter related infection (Total (N = 60)): 1 (2%)
- Grade 3 or greater TEAE: Cellulitis (Total (N = 60)): 1 (2%)
- Grade 3 or greater TEAE: Diarrhoea (Total (N = 60)): 3 (5%)
- Grade 3 or greater TEAE: Disease progression (Total (N = 60)): 1 (2%)
- Grade 3 or greater TEAE: Enterocutaneous fistula (Total (N = 60)): 1 (2%)
- Grade 3 or greater TEAE: Gamma-glutamyltransferase increased (Total (N = 60)): 2 (3%)
- Grade 3 or greater TEAE: Gastroenteritis (Total (N = 60)): 1 (2%)
- Grade 3 or greater TEAE: Hyperglycaemia (Total (N = 60)): 5 (8%)
- Grade 3 or greater TEAE: Hypokalaemia (Total (N = 60)): 2 (3%)
- Grade 3 or greater TEAE: Hyponatraemia (Total (N = 60)): 2 (3%)
- Grade 3 or greater TEAE: Lymphopenia (Total (N = 60)): 4 (7%)
- Grade 3 or greater TEAE: Pancreatitis acute (Total (N = 60)): 1 (2%)
- Grade 3 or greater TEAE: Pleural effusion (Total (N = 60)): 1 (2%)
- Grade 3 or greater TEAE: Pruritus (Total (N = 60)): 2 (3%)
- Grade 3 or greater TEAE: Rash (Total (N = 60)): 7 (12%)
- Grade 3 or greater TEAE: Rash macular (Total (N = 60)): 1 (2%)
- Grade 3 or greater TEAE: Somnolence (Total (N = 60)): 1 (2%)
- Grade 3 or greater TEAE: Thrombocytopenia (Total (N = 60)): 2 (3%)
- Grade 3 or greater TEAE: Urinary tract infection (Total (N = 60)): 1 (2%)
- Patients Reporting at Least One Grade 3 or Greater TEAE (Total (N = 60)): 25 (42%)
- Anaemia (Total QD Dosing (N = 25)): 2 (8%)
- Asthenia (Total QD Dosing (N = 25)): 6 (24%)
- Blood creatinine increased (Total QD Dosing (N = 25)): 6 (24%)
- Coagulopathy (Total QD Dosing (N = 25)): 1 (4%)
- Confusional state (Total QD Dosing (N = 25)): 1 (4%)
- Cough (Total QD Dosing (N = 25)): 1 (4%)
- Decreased appetite (Total QD Dosing (N = 25)): 6 (24%)
- Dehydration (Total QD Dosing (N = 25)): 2 (8%)
- Diarrhoea (Total QD Dosing (N = 25)): 8 (32%)
- Dizziness (Total QD Dosing (N = 25)): 1 (4%)
- Dry mouth (Total QD Dosing (N = 25)): 5 (20%)
- Dry skin (Total QD Dosing (N = 25)): 1 (4%)
- Dysgeusia (Total QD Dosing (N = 25)): 8 (32%)
- Dyspepsia (Total QD Dosing (N = 25)): 1 (4%)
- Dyspnoea (Total QD Dosing (N = 25)): 1 (4%)
- Dyspnoea exertional (Total QD Dosing (N = 25)): 1 (4%)
- Eye infection (Total QD Dosing (N = 25)): 1 (4%)
- Fatigue (Total QD Dosing (N = 25)): 6 (24%)
- Gastritis (Total QD Dosing (N = 25)): 1 (4%)
- Gravitational oedema (Total QD Dosing (N = 25)): 1 (4%)
- Hypercholesterolaemia (Total QD Dosing (N = 25)): 5 (20%)
- Hyperglycaemia (Total QD Dosing (N = 25)): 22 (88%)
- Hypocalcaemia (Total QD Dosing (N = 25)): 1 (4%)
- Insomnia (Total QD Dosing (N = 25)): 1 (4%)
- Lymphopenia (Total QD Dosing (N = 25)): 3 (12%)
- Mucosal inflammation (Total QD Dosing (N = 25)): 8 (32%)
- Muscle spasms (Total QD Dosing (N = 25)): 1 (4%)
- Nausea (Total QD Dosing (N = 25)): 9 (36%)
- Orthostatic hypotension (Total QD Dosing (N = 25)): 1 (4%)
- Panniculitis (Total QD Dosing (N = 25)): 1 (4%)
- Patients Reporting at Least One Related TEAE (Total QD Dosing (N = 25)): 25 (100%)
- Polyuria (Total QD Dosing (N = 25)): 1 (4%)
- Pruritus (Total QD Dosing (N = 25)): 9 (36%)
- Rash (Total QD Dosing (N = 25)): 13 (52%)
- Skin discolouration (Total QD Dosing (N = 25)): 1 (4%)
- Skin exfoliation (Total QD Dosing (N = 25)): 1 (4%)
- Thrombocytopenia (Total QD Dosing (N = 25)): 4 (16%)
- Vomiting (Total QD Dosing (N = 25)): 6 (24%)
- Weight decreased (Total QD Dosing (N = 25)): 1 (4%)
- Alanine aminotransferase increased (Total QDx3d QW (N = 14)): 1 (7%)
- Asthenia (Total QDx3d QW (N = 14)): 3 (21%)
- Catheter site inflammation (Total QDx3d QW (N = 14)): 1 (7%)
- Catheter site pain (Total QDx3d QW (N = 14)): 1 (7%)
- Decreased appetite (Total QDx3d QW (N = 14)): 1 (7%)
- Diarrhoea (Total QDx3d QW (N = 14)): 2 (14%)
- Dry skin (Total QDx3d QW (N = 14)): 1 (7%)
- Dysgeusia (Total QDx3d QW (N = 14)): 1 (7%)
- Dyspnoea (Total QDx3d QW (N = 14)): 1 (7%)
- Fatigue (Total QDx3d QW (N = 14)): 1 (7%)
- Headache (Total QDx3d QW (N = 14)): 1 (7%)
- Hyperbilirubinaemia (Total QDx3d QW (N = 14)): 1 (7%)
- Hypercholesterolaemia (Total QDx3d QW (N = 14)): 1 (7%)
- Hyperglycaemia (Total QDx3d QW (N = 14)): 6 (43%)
- Hypertransaminasaemia (Total QDx3d QW (N = 14)): 1 (7%)
- Hypertriglyceridaemia (Total QDx3d QW (N = 14)): 1 (7%)
- Hypomagnesaemia (Total QDx3d QW (N = 14)): 1 (7%)
- Hypotension (Total QDx3d QW (N = 14)): 1 (7%)
- Low fever (Total QDx3d QW (N = 14)): 1 (7%)
- Lymphopenia (Total QDx3d QW (N = 14)): 1 (7%)
- Mucosal inflammation (Total QDx3d QW (N = 14)): 7 (50%)
- Nausea (Total QDx3d QW (N = 14)): 6 (43%)
- Palmar-plantar erythrodysaesthesia syndrome (Total QDx3d QW (N = 14)): 1 (7%)
- Patients Reporting at Least One Related TEAE (Total QDx3d QW (N = 14)): 11 (79%)
- Platelet count decreased (Total QDx3d QW (N = 14)): 1 (7%)
- Pruritus (Total QDx3d QW (N = 14)): 4 (29%)
- Pyrexia (Total QDx3d QW (N = 14)): 1 (7%)
- Rash (Total QDx3d QW (N = 14)): 4 (29%)
- Rash macular (Total QDx3d QW (N = 14)): 1 (7%)
- Urinary tract infection (Total QDx3d QW (N = 14)): 1 (7%)
- Vomiting (Total QDx3d QW (N = 14)): 3 (21%)
- Asthenia (Total QDx3d QW (N = 14), 2nd Asthenia line): 1 (7%)
- Diarrhoea (Total QDx5d QW (N = 6)): 1 (17%)
- Patients Reporting at Least One Related TEAE (Total QDx5d QW (N = 6)): 2 (33%)
- Rash (Total QDx5d QW (N = 6)): 1 (17%)
- Urine tract infection (Total QDx5d QW (N = 6)): 1 (17%)
- Vomiting (Total QDx5d QW (N = 6)): 1 (17%)
- Nausea (Total QDx5d QW (N = 6), 1st Nausea line): 1 (17%)
- Nausea (Total QDx5d QW (N = 6), 2nd Nausea line): 1 (17%)
- ASTHENIA (Total QW Dosing (N = 15)): 1 (7%)
- ATHENIA (Total QW Dosing (N = 15)): 1 (7%)
- Alanine aminotransferase increased (Total QW Dosing (N = 15)): 1 (7%)
- Aspartate aminotransferase increased (Total QW Dosing (N = 15)): 2
- Asthenia (Total QW Dosing (N = 15)): 2
- Blood creatinine increased (Total QW Dosing (N = 15)): 1 (7%)
- Blood triglycerides increased (Total QW Dosing (N = 15)): 1 (7%)
- DIARRHEA (Total QW Dosing (N = 15)): 1 (7%)
- Decreased appetite (Total QW Dosing (N = 15)): 1 (7%)
- Diarrhoea (Total QW Dosing (N = 15)): 3
- Dysgeusia (Total QW Dosing (N = 15)): 1 (7%)
- Dyspepsia (Total QW Dosing (N = 15)): 1 (7%)
- HYPERGLYCEMIA (Total QW Dosing (N = 15)): 2
- Hyperglycaemia (Total QW Dosing (N = 15)): 5
- Lymphopenia (Total QW Dosing (N = 15)): 1 (7%)
- Malaise (Total QW Dosing (N = 15)): 1 (7%)
- Mucosal inflammation (Total QW Dosing (N = 15)): 3
- Muscle spasms (Total QW Dosing (N = 15)): 1 (7%)
- Nausea (Total QW Dosing (N = 15)): 10
- Oral discomfort (Total QW Dosing (N = 15)): 1 (7%)
- Patients Reporting at Least One Related TEAE (Total QW Dosing (N = 15)): 13
- Pruritus (Total QW Dosing (N = 15)): 1 (7%)
- RASH (Total QW Dosing (N = 15)): 1 (7%)
- Rash (Total QW Dosing (N = 15)): 1 (7%)
- Vomiting (Total QW Dosing (N = 15)): 5
- WEAKNESS (Total QW Dosing (N = 15)): 1 (7%)
- asthenia, AE considered possibly related [3]: 23%
- diarrhea, AE considered possibly related [3]: 20%
- hyperglycemia, AE considered possibly related [3]: 37%
- mucosal inflammation, AE considered possibly related [3]: 29%
- nausea, AE considered possibly related [3]: 51%
- rash, AE considered possibly related [3]: 23%
- vomiting, AE considered possibly related [3]: 26%
- grade of the majority of AEs considered possibly related (any regimen): Grade 1 or 2
- MTD (intermittent dosing): not reached
